Legend:
[1] = test system: E. faecalis; experiment: Biological activity against bacterial strains: E. faecalis; format: cell-based, Enterococcus faecalis; settings: strain ATCC51575
[2] = test system: S. epidermidis; experiment: Biological activity against bacterial strains: S. epidermidis; format: cell-based, Staphylococcus epidermidis; settings: strain ATCC12228
[3] = test system: S. pneumoniae; experiment: Biological activity against bacterial strains: S. pneumoniae; format: cell-based, Streptococcus pneumoniae; set-up: Biological Activity, S. pneumoniae ATCC6301 / Biological Activity, S. pneumoniae ATCC700671 / Biological Activity, S. pneumoniae ATCC700676* / Biological Activity, S. pneumoniae ATCC700677* / Biological Activity, S. pneumoniae ATCC700905* / Biological Activity, S. pneumoniae ATCC700906* / Biological Activity, S. pneumoniae ATCC49619: unit not given here; settings: for Biological Activity, S. pneumoniae ATCC6301: strain ATCC6301; for Biological Activity, S. pneumoniae ATCC49619: strain ATCC49619; for Biological Activity, S. pneumoniae ATCC700671: strain ATCC700671; for Biological Activity, S. pneumoniae ATCC700676*: strain ATCC700676, macrolide resistant strain; for Biological Activity, S. pneumoniae ATCC700677*: strain ATCC700677, macrolide resistant strain; for Biological Activity, S. pneumoniae ATCC700905*: strain ATCC700905, macrolide resistant strain; for Biological Activity, S. pneumoniae ATCC700906*: strain ATCC700906, macrolide resistant strain
[4] = test system: S. aureus; experiment: Biological activity against bacterial strains: S. aureus; format: cell-based, Staphylococcus aureus; set-up: unit not given here; settings: for Biological Activity, S. aureus ATCC6538p: strain ATCC6538p; for Biological Activity, S. aureus ATCC14154*: strain ATCC14154, macrolide resistant strain; for Biological Activity, S. aureus ATCC29213: strain ATCC29213; for Biological Activity, S. aureus ATCC33591*: strain ATCC33591, macrolide resistant strain; for Biological Activity, S. aureus ATCCBAA-39*: strain ATCCBAA-39, macrolide resistant strain; for Biological Activity, S. aureus ATCCBAA-44*: strain ATCCBAA-44, macrolide resistant strain
[5] = test system: Haemophilus Influenzae; experiment: H. influenzae Activity; format: cell-based; settings: for decrease in activity compared to OMT: strains ATCC9006 and ATCC49766
[6] = test system: a series of bacterial strains; experiment: Biological activity against a series of bacterial strains (overall statements); format: cell-based
Text: Results for S. pneumoniae, S. aureus, S. epidermidis, and E. faecalis are provided in Table B. Data on activity against H. influenzae for selected compounds are presented in Table C.

| Compound | Biological Activity, E. faecalis ATCC51575 [1] | Biological Activity, S. epidermidis ATCC12228 [2] | Biological Activity, S. pneumoniae ATCC6301 [3] | Biological Activity, S. pneumoniae ATCC49619 [3] | Biological Activity, S. pneumoniae ATCC700671 [3] | Biological Activity, S. pneumoniae ATCC700676* [3] | Biological Activity, S. pneumoniae ATCC700677* [3] | Biological Activity, S. pneumoniae ATCC700905* [3] | Biological Activity, S. pneumoniae ATCC700906* [3] | Biological Activity, S. aureus ATCC6538p [4] | Biological Activity, S. aureus ATCC14154* [4] | Biological Activity, S. aureus ATCC29213 [4] | Biological Activity, S. aureus ATCC33591* [4] | Biological Activity, S. aureus ATCCBAA-39* [4] | Biological Activity, S. aureus ATCCBAA-44* [4] | H. influenzae Activity, strain ATCC9006 [5] | H. influenzae Activity, strain ATCC49766 [5] | also measured |
| --- | --- | --- | --- | --- | --- | --- | --- | --- | --- | --- | --- | --- | --- | --- | --- | --- | --- | --- |
| CCC1OC(=O)CC(O)C(C)C(OC2OC(C)C(O)C(N(C)C)C2O)C(CC=O)CC(C)C(=NOCCCCOc2ccc3ncccc3c2)C=CC(C)=CC1COC(=O)NCc1ccccc1 (stereo not shown) [Compound EE] | >12.5 | 6.25 | 0.049 | 0.098 | 0.2 | 0.049 | 0.39 | 0.049 | >12.5 | 3.12 | 6.25 | 6.25 | >12.5 | >12.5 | >12.5 | 12.5 | >12.5 |  |
| CCC1OC(=O)CC(O)C(C)C(OC2OC(C)C(O)C(N(C)C)C2O)C(CC=O)CC(C)C(=NOCCCCc2cnc3ccccc3c2)C=CC(C)=CC1CO (stereo not shown) [Compound J] | >12.5 | 0.20 | 0.025 | 0.049 | 0.025 | 0.025 | 0.025 | 0.025 | >12.5 | 0.025 | 0.20 | 0.20 | >12.5 | >12.5 | >12.5 | 6.25 | 6.25 | decrease in activity compared to OMT [5]: ~4 fold |
| CC[C@H]1OC(=O)C[C@@H](O)[C@H](C)[C@@H](O[C@@H]2O[C@H](C)[C@@H](O)[C@H](N(C)C)[C@H]2O)[C@@H](CC=O)C[C@@H](C)C(=O)/C=C/C(C)=C/[C@@H]1CO [OMT, 5-O-mycaminosyltylonolide, reference compound] | >12.5 | 0.39 | 0.025 | 0.098 | 0.049 | 0.78 | 6.25 | 0.78 | >12.5 | 0.39 | 1.56 | 0.78 | >12.5 | >12.5 | >12.5 | 1.56 | 1.56 | H. influenzae Activity, strain EH001 ([5]; strain EH001): 3.12; H. influenzae Activity, strain EH002 ([5]; strain EH002): 6.25; H. influenzae Activity, strain EH003 ([5]; strain EH003): 1.56 |
| CCC1OC(=O)CC(O)C(C)C(OC2OC(C)C(O)C(N(C)C)C2O)C(CC=O)CC(C)C(=NOCC=Cc2cnc3ccccc3c2)C=CC(C)=CC1COC(=O)NCc1ccccc1 (stereo not shown) [Compound FF] | >12.5 | 3.12 | 0.2 | 0.2 | 0.2 | 0.049 | 0.2 | 0.098 | >12.5 | 1.56 | 6.25 | 3.12 | 12.5 | >12.5 | >12.5 | 12.5 | 12.5 |  |
| CCC1OC(=O)CC(O)C(C)C(OC2OC(C)C(O)C(N(C)C)C2O)C(CC=O)CC(C)C(=NOCCCOc2ccc3ncccc3c2)C=CC(C)=CC1COC(=O)NCc1ccccc1 (stereo not shown) [Compound DD] | >12.5 | 0.78 | 0.049 | 0.049 | 0.049 | 0.049 | 0.2 | >12.5 | 0.049 | 0.78 | 1.56 | 0.78 | 12.5 | >12.5 | >12.5 | 12.5 | 12.5 |  |
| CCC1OC(=O)CC(O)C(C)C(OC2OC(C)C(O)C(N(C)C)C2O)C(CCN2CC(C)CC(C)C2)CC(C)C(=O)C=CC(C)=CC1CO (stereo not shown) [Compound 8, 20-Deoxy(3,5-dimethyl-1-piperidine)OMT, reference compound] | >12.5 | 0.78 | 0.39 | 0.78 | 0.78 | 1.56 | >12.5 | 1.56 | >12.5 | 0.39 | 1.56 | 1.56 | >12.5 | >12.5 | >12.5 |  |  | antibiotic / antibacterial activity (in words) [6]: no antibiotic activity |
| CCC1OC(=O)CC(O)C(C)C(OC2OC(C)C(O)C(N(C)C)C2O)C(CCN2CC(C)CC(C)C2)CC(C)C(=NO)C=CC(C)=CC1CO (stereo not shown) [Compound 9, 20-deoxy(3,5-dimethyl-1-piperidine)OMT 9-oxime, reference compound] |  |  |  |  |  |  |  |  |  |  |  |  |  |  |  |  |  | antibiotic / antibacterial activity (in words) [6]: no antibiotic activity |
| CCC1OC(=O)CC(O)C(C)C(OC2OC(C)C(O)C(N(C)C)C2O)C(CC=O)CC(C)C(=NOCCCOc2ccc3ncccc3c2)C=CC(C)=CC1CO (stereo not shown) [Compound A] | >12.5 | 0.098 | 0.025 | 0.01 | 0.025 | 0.025 | 0.20 | 0.025 | >12.5 | 0.025 | 0.20 | 0.098 | >12.5 | >12.5 | >12.5 | 6.25 | 6.25 | decrease in activity compared to OMT [5]: ~4 fold |
| CO[C@@H]1[C@@H](OC2OC(C)C(O)C(N(C)C)C2O)[C@@H](CC=O)C[C@@H](C)C(=N/OCCCOc2ccc3ncccc3c2)/C=C/C=C/C[C@@H](C)OC(=O)C[C@H]1O (stereo partly shown) [Compound HH] | >12.5 | 0.78 | 0.025 | 0.025 | 0.025 | 0.025 | 3.12 | 0.025 | >12.5 | 0.2 | 0.78 | 3.12 | >12.5 | >12.5 | >12.5 |  |  |  |
| CC[C@H]1OC(=O)C[C@@H](O)[C@H](C)[C@@H](OC2OC(C)C(O)C(N(C)C)C2O)[C@@H](CC=O)C[C@@H](C)C(=N\OCc2ccc(F)cc2)/C=C/C(C)=C/C1CO (stereo partly shown) [Compound IIc] | >12.5 | 1.56 | 0.2 | 0.2 | 0.39 | 0.2 | 3.12 | 0.39 | >12.5 | 0.78 | 1.56 | 1.56 | >12.5 | >12.5 | >12.5 |  |  |  |

— patent US7247617B2, “Sixteen-member macrolide antiinfective agents” (Kosan Biosciences Incorporated, priority 2004, dated 2007)
